Experimental data taken from article PMC5218480 (PLoS ONE, 2017).

System: MV-4-11 cells
Assay: Gene expression microarray analysis (Affymetrix PrimeView) and GSEA
Assay type: cell-based, human
Design: RFU PODN (11730768_x_at) / Fold change /veh PODN (11730768_x_at) / RFU LINC00158 (11744669_a_at) / Fold change /veh LINC00158 (11744669_a_at) / RFU DUSP10 (11751237_a_at) / Fold change /veh DUSP10 (11751237_a_at) / RFU ID3 (11757404_x_at) / Fold change /veh ID3 (11757404_x_at) / RFU PLEKHG5 (11737974_s_at) / Fold change /veh PLEKHG5 (11737974_s_at) / RFU LRRC4B (11730491_at) / Fold change /veh LRRC4B (11730491_at) / RFU GIMAP4 (11747438_a_at) / Fold change /veh GIMAP4 (11747438_a_at) / RFU KRT8 (11758183_x_at) / Fold change /veh KRT8 (11758183_x_at) / RFU CNN1 (11734310_a_at) / Fold change /veh CNN1 (11734310_a_at) / RFU VPS37D (11726825_at) / Fold change /veh VPS37D (11726825_at) / RFU C10orf10 (11716522_x_at) / Fold change /veh C10orf10 (11716522_x_at) / RFU KIR2DL2 /// KIR2DL4 /// KIR2DL5A /// KIR2DL5B /// KIR2DS1 /// KIR2DS2 /// KIR2DS3 /// KIR2DS4 /// KIR3DL3 /// KIR3DL3 /// KIR3DS1 (11738374_at) / Fold change /veh KIR2DL2 /// KIR2DL4 /// KIR2DL5A /// KIR2DL5B /// KIR2DS1 /// KIR2DS2 /// KIR2DS3 /// KIR2DS4 /// KIR3DL3 /// KIR3DL3 /// KIR3DS1 (11738374_at) / RFU C1QL1 (11718748_at) / Fold change /veh C1QL1 (11718748_at) / RFU TMPRSS4 (11747572_a_at) / Fold change /veh TMPRSS4 (11747572_a_at) / RFU HAMP (11756126_x_at) / Fold change /veh HAMP (11756126_x_at) / RFU RNFT2 (11725882_a_at) / Fold change /veh RNFT2 (11725882_a_at) / RFU NR4A2 (11747474_a_at) / Fold change /veh NR4A2 (11747474_a_at) / RFU ABCC12 (11746883_a_at) / Fold change /veh ABCC12 (11746883_a_at) / RFU TMEM136 (11760407_x_at) / Fold change /veh TMEM136 (11760407_x_at) / RFU CLDN22 /// WWC2 (11732394_at) / Fold change /veh CLDN22 /// WWC2 (11732394_at) / RFU HLA-DPB1 (11760878_x_at) / Fold change /veh HLA-DPB1 (11760878_x_at) / RFU SPINT1 (11716480_a_at) / Fold change /veh SPINT1 (11716480_a_at) / RFU GAP43 (11754022_s_at) / Fold change /veh GAP43 (11754022_s_at) / RFU A4GNT (11735810_at) / Fold change /veh A4GNT (11735810_at) / RFU PRB3 (11715151_x_at) / Fold change /veh PRB3 (11715151_x_at) / RFU TUBB4B (11761932_at) / Fold change /veh TUBB4B (11761932_at) / RFU CAPN14 (11732068_a_at) / Fold change /veh CAPN14 (11732068_a_at) / RFU TMCC2 (11721928_a_at) / Fold change /veh TMCC2 (11721928_a_at) / RFU IRGQ (11745062_a_at) / Fold change /veh IRGQ (11745062_a_at) / RFU FAM174B (11720279_a_at) / Fold change /veh FAM174B (11720279_a_at) / RFU TMPRSS4 (11748680_a_at) / Fold change /veh TMPRSS4 (11748680_a_at) / RFU FAM212B (11763350_a_at) / Fold change /veh FAM212B (11763350_a_at) / RFU PLEKHG5 (11743358_a_at) / Fold change /veh PLEKHG5 (11743358_a_at) / RFU ZSCAN30 (11745921_a_at) / Fold change /veh ZSCAN30 (11745921_a_at) / RFU CMKLR1 (11741424_a_at) / Fold change /veh CMKLR1 (11741424_a_at) / RFU LOC101060620 /// MAPK8IP1 (11723275_at) / Fold change /veh LOC101060620 /// MAPK8IP1 (11723275_at) / RFU SPTSSB (11747773_x_at) / Fold change /veh SPTSSB (11747773_x_at) / RFU PRSS12 (11739890_at) / Fold change /veh PRSS12 (11739890_at) / RFU BIN1 (11741810_x_at) / Fold change /veh BIN1 (11741810_x_at) / RFU WNT11 (11732464_a_at) / Fold change /veh WNT11 (11732464_a_at) / RFU C10orf10 (11716521_a_at) / Fold change /veh C10orf10 (11716521_a_at) / RFU C5orf56 (11738089_at) / Fold change /veh C5orf56 (11738089_at) / RFU CYB561 (11721691_x_at) / Fold change /veh CYB561 (11721691_x_at) / RFU ANKRD19P (11752326_a_at) / Fold change /veh ANKRD19P (11752326_a_at) / RFU OR2T12 /// OR2T33 /// OR2T8 (11738714_s_at) / Fold change /veh OR2T12 /// OR2T33 /// OR2T8 (11738714_s_at) / RFU VCAN (11748164_a_at) / Fold change /veh VCAN (11748164_a_at) / RFU JSRP1 (11732532_at) / Fold change /veh JSRP1 (11732532_at) / RFU KRTAP10-11 (11738290_x_at) / Fold change /veh KRTAP10-11 (11738290_x_at) / RFU MYO3A (11730013_a_at) / Fold change /veh MYO3A (11730013_a_at) / RFU EBF3 (11725865_a_at) / Fold change /veh EBF3 (11725865_a_at) / RFU CAMK2N1 (11719241_x_at) / Fold change /veh CAMK2N1 (11719241_x_at) / RFU C5orf56 (11738088_a_at) / Fold change /veh C5orf56 (11738088_a_at) / RFU OLFML3 (11715873_a_at) / Fold change /veh OLFML3 (11715873_a_at) / RFU LOC100653217 /// NTM (11731650_a_at) / Fold change /veh LOC100653217 /// NTM (11731650_a_at) / RFU MAPK11 (11762145_a_at) / Fold change /veh MAPK11 (11762145_a_at) / RFU FIZ1 (11724087_x_at) / Fold change /veh FIZ1 (11724087_x_at) / RFU OASL (11726364_x_at) / Fold change /veh OASL (11726364_x_at) / RFU SOX15 (11748057_x_at) / Fold change /veh SOX15 (11748057_x_at) / RFU CD79A (11719716_a_at) / Fold change /veh CD79A (11719716_a_at) / RFU HIST1H1D (11736915_at) / Fold change /veh HIST1H1D (11736915_at) / RFU CASKIN2 (11723855_a_at) / Fold change /veh CASKIN2 (11723855_a_at) / RFU LOC730098 (11760151_x_at) / Fold change /veh LOC730098 (11760151_x_at) / RFU OR4N2 (11742367_at) / Fold change /veh OR4N2 (11742367_at) / RFU PRRT2 (11749266_a_at) / Fold change /veh PRRT2 (11749266_a_at) / RFU SNX32 (11753110_a_at) / Fold change /veh SNX32 (11753110_a_at) / RFU CDHR5 (11726645_a_at) / Fold change /veh CDHR5 (11726645_a_at) / RFU RCAN1 (11760418_a_at) / Fold change /veh RCAN1 (11760418_a_at) / RFU FAM167A (11723789_a_at) / Fold change /veh FAM167A (11723789_a_at) / RFU FAM26E (11764081_at) / Fold change /veh FAM26E (11764081_at) / RFU ISYNA1 (11749810_s_at) / Fold change /veh ISYNA1 (11749810_s_at) / RFU ACY1 (11761880_at) / Fold change /veh ACY1 (11761880_at) / RFU 11764098_at / Fold change /veh 11764098_at / RFU SAMD14 (11745864_x_at) / Fold change /veh SAMD14 (11745864_x_at) / RFU NPB (11741838_a_at) / Fold change /veh NPB (11741838_a_at) / RFU TMPRSS6 (11731388_a_at) / Fold change /veh TMPRSS6 (11731388_a_at) / RFU KRTAP10-2 (11738614_at) / Fold change /veh KRTAP10-2 (11738614_at) / RFU ARHGAP8 /// PRR5-ARHGAP8 (11727945_x_at) / Fold change /veh ARHGAP8 /// PRR5-ARHGAP8 (11727945_x_at) / RFU KRTAP5-7 /// NADSYN1 (11734609_at) / Fold change /veh KRTAP5-7 /// NADSYN1 (11734609_at) / RFU RASL12 (11751679_a_at) / Fold change /veh RASL12 (11751679_a_at) / RFU CDKN2B (11736163_a_at) / Fold change /veh CDKN2B (11736163_a_at) / RFU PRF1 (11729649_at) / Fold change /veh PRF1 (11729649_at) / RFU, ZNF638 /// ZNF638-IT1 / Fold change vs veh, ZNF638 /// ZNF638-IT1 / RFU, PANK3 / Fold change vs veh, PANK3 / RFU, SH3YL1 / Fold change vs veh, SH3YL1 / RFU, ZEB2 / Fold change vs veh, ZEB2 / RFU, NRIP1 / Fold change vs veh, NRIP1 / RFU, PTTG1IP / Fold change vs veh, PTTG1IP / RFU, CAPN2 / Fold change vs veh, CAPN2 / RFU, MED14 / Fold change vs veh, MED14 / RFU, SNORA58 / Fold change vs veh, SNORA58 / RFU, C1orf63 / Fold change vs veh, C1orf63 / RFU, LRRFIP1 / Fold change vs veh, LRRFIP1 / RFU, NDUFAF7 / Fold change vs veh, NDUFAF7 / RFU, SLC12A2 / Fold change vs veh, SLC12A2 / RFU, IBTK / Fold change vs veh, IBTK / RFU, ESF1 / Fold change vs veh, ESF1 / Fold change vs veh, TMEM50B / RFU, TAOK1 / Fold change vs veh, TAOK1 / RFU, ACBD3 / Fold change vs veh, ACBD3 / RFU, TMA16 / Fold change vs veh, TMA16 / RFU, RWDD3 / Fold change vs veh, RWDD3 / RFU, BCAT1 / Fold change vs veh, BCAT1 / RFU, EDEM3 / Fold change vs veh, EDEM3 / RFU, TMEM33 / Fold change vs veh, TMEM33 / RFU, WDR75 / Fold change vs veh, WDR75 / RFU, AHCTF1 / Fold change vs veh, AHCTF1 / RFU, TFRC / Fold change vs veh, TFRC / RFU, ZDHHC17 / Fold change vs veh, ZDHHC17 / RFU, NOM1 / Fold change vs veh, NOM1 / RFU, ARL8B / Fold change vs veh, ARL8B / RFU, ZBTB11 / Fold change vs veh, ZBTB11 / RFU, TAMM41 / Fold change vs veh, TAMM41 / RFU, KIAA1704 /// LOC100996395 / Fold change vs veh, KIAA1704 /// LOC100996395 / RFU, ING1 / Fold change vs veh, ING1 / RFU, TRMT61B / Fold change vs veh, TRMT61B / RFU, FUBP3 / Fold change vs veh, FUBP3 / RFU, TP53 / Fold change vs veh, TP53 / RFU, TNKS2 / Fold change vs veh, TNKS2 / RFU, ZFP14 / Fold change vs veh, ZFP14 / RFU, ACTR2 / Fold change vs veh, ACTR2 / RFU, PPP3R1 / Fold change vs veh, PPP3R1 / RFU, PIK3R1 / Fold change vs veh, PIK3R1 / RFU, HNRNPA1 / Fold change vs veh, HNRNPA1 / RFU, RNF170 / Fold change vs veh, RNF170 / RFU, ZNF28 / Fold change vs veh, ZNF28 / RFU, RNGTT / Fold change vs veh, RNGTT / RFU, OGT / Fold change vs veh, OGT / RFU, BRD1 / Fold change vs veh, BRD1 / RFU, MARS / Fold change vs veh, MARS / RFU, ZNF655 / Fold change vs veh, ZNF655 / RFU, FAHD1 / Fold change vs veh, FAHD1 / RFU, BDP1 / Fold change vs veh, BDP1 / RFU, LRRCC1 / Fold change vs veh, LRRCC1 / RFU, ARID1A / Fold change vs veh, ARID1A / RFU, ZNF146 / Fold change vs veh, ZNF146 / RFU, ZNF330 / Fold change vs veh, ZNF330 / RFU, GPN3 / Fold change vs veh, GPN3 / RFU, C9orf123 / Fold change vs veh, C9orf123 / RFU, N4BP2L2 / Fold change vs veh, N4BP2L2 / RFU, ARFIP1 / Fold change vs veh, ARFIP1 / RFU, FAM179B / Fold change vs veh, FAM179B / RFU, BCL10 / Fold change vs veh, BCL10 / RFU, UHRF1BP1L / Fold change vs veh, UHRF1BP1L / RFU, BET1 / Fold change vs veh, BET1 / RFU, CNOT2 / Fold change vs veh, CNOT2 / RFU, ZNF268 / Fold change vs veh, ZNF268 / Fold change vs veh, ZNF507 / RFU, DGCR2 / Fold change vs veh, DGCR2 / RFU, WDSUB1 / Fold change vs veh, WDSUB1 / Fold change vs veh, HSP90B1 /// MIR3652 / RFU, ADSS / Fold change vs veh, ADSS / RFU, GK / Fold change vs veh, GK / RFU, ZNF148 / Fold change vs veh, ZNF148 / RFU, TAF9 / Fold change vs veh, TAF9 / RFU, SLC1A5 / Fold change vs veh, SLC1A5 / RFU, SLMO2 / Fold change vs veh, SLMO2 / RFU, ABCC4 / Fold change vs veh, ABCC4 / RFU, LOC101060439 /// RAP1B / Fold change vs veh, LOC101060439 /// RAP1B / RFU, RFX7 / Fold change vs veh, RFX7 / RFU, GTPBP10 / Fold change vs veh, GTPBP10 / RFU, CNEP1R1 / Fold change vs veh, CNEP1R1 / RFU, BIVM-ERCC5 /// ERCC5 / Fold change vs veh, BIVM-ERCC5 /// ERCC5 / RFU, ILF3 / Fold change vs veh, ILF3 / RFU 11762660_at / Fold change /veh 11762660_at / RFU VCAN (11757783_s_at) / Fold change /veh VCAN (11757783_s_at) / RFU DDX43 (11728927_at) / Fold change /veh DDX43 (11728927_at) / RFU KRT8 (11758188_x_at) / Fold change /veh KRT8 (11758188_x_at) / RFU NKD1 (11759106_at) / Fold change /veh NKD1 (11759106_at) / RFU SRD5A1 (11742802_a_at) / Fold change /veh SRD5A1 (11742802_a_at) / RFU TPSAB1 /// TPSB2 (11721975_s_at) / Fold change /veh TPSAB1 /// TPSB2 (11721975_s_at) / RFU GSTM3 (11746129_a_at) / Fold change /veh GSTM3 (11746129_a_at) / RFU IL23R (11737362_x_at) / Fold change /veh IL23R (11737362_x_at) / RFU TMEM51 (11727254_a_at) / Fold change /veh TMEM51 (11727254_a_at) / RFU PIWIL2 (11732686_x_at) / Fold change /veh PIWIL2 (11732686_x_at) / RFU ORM1 (11744905_x_at) / Fold change /veh ORM1 (11744905_x_at) / RFU CCDC152 (11743942_at) / Fold change /veh CCDC152 (11743942_at) / RFU ECM1 (11717891_a_at) / Fold change /veh ECM1 (11717891_a_at) / RFU IL23R (11748794_a_at) / Fold change /veh IL23R (11748794_a_at) / RFU TNFAIP8L3 (11732012_x_at) / Fold change /veh TNFAIP8L3 (11732012_x_at) / RFU MBOAT4 (11741988_at) / Fold change /veh MBOAT4 (11741988_at) / RFU 11764193_at / Fold change /veh 11764193_at / RFU TMEM53 (11763286_at) / Fold change /veh TMEM53 (11763286_at) / RFU MAGEB2 (11727129_at) / Fold change /veh MAGEB2 (11727129_at) / RFU TMEM200A (11744735_a_at) / Fold change /veh TMEM200A (11744735_a_at) / RFU CCDC152 (11751479_a_at) / Fold change /veh CCDC152 (11751479_a_at) / RFU FAM211A (11726209_a_at) / Fold change /veh FAM211A (11726209_a_at) / RFU RGS16 (11746705_a_at) / Fold change /veh RGS16 (11746705_a_at) / RFU VCAN (11755009_s_at) / Fold change /veh VCAN (11755009_s_at) / RFU RHOB (11743442_s_at) / Fold change /veh RHOB (11743442_s_at) / RFU RGS16 (11720943_a_at) / Fold change /veh RGS16 (11720943_a_at) / RFU RGS16 (11720944_at) / Fold change /veh RGS16 (11720944_at) / RFU, VPS4B / Fold change vs veh, VPS4B / RFU, CREB1 / Fold change vs veh, CREB1 / RFU, DNAJC13 / Fold change vs veh, DNAJC13 / RFU, GNAQ / Fold change vs veh, GNAQ / RFU, CDK5R1 / Fold change vs veh, CDK5R1 / RFU, ZRANB3 / Fold change vs veh, ZRANB3 / RFU, CUL4A / Fold change vs veh, CUL4A / RFU, CCNY / Fold change vs veh, CCNY / RFU, UFL1 / Fold change vs veh, UFL1 / RFU, COG3 / Fold change vs veh, COG3 / RFU, DIAPH2 / Fold change vs veh, DIAPH2 / RFU, SKA2 / Fold change vs veh, SKA2 / RFU, AFF3 / Fold change vs veh, AFF3 / RFU, LMF1 / Fold change vs veh, LMF1 / RFU, IPO11 / Fold change vs veh, IPO11 / RFU, DFFB / Fold change vs veh, DFFB / RFU, FOXP1 / Fold change vs veh, FOXP1 / RFU, CARD8 / Fold change vs veh, CARD8 / RFU, STRN3 / Fold change vs veh, STRN3 / RFU, ADK / Fold change vs veh, ADK / RFU, RASSF2 / Fold change vs veh, RASSF2 / RFU, WIPF1 / Fold change vs veh, WIPF1 / RFU, LARP1B / Fold change vs veh, LARP1B / RFU, RASA1 / Fold change vs veh, RASA1 / RFU, RB1 / Fold change vs veh, RB1 / RFU, PPFIA1 / Fold change vs veh, PPFIA1 / RFU, MAT2A / Fold change vs veh, MAT2A / RFU, CCT5 / Fold change vs veh, CCT5 / RFU, WDR92 / Fold change vs veh, WDR92 / RFU, CUX1 / Fold change vs veh, CUX1 / RFU, TTC7A / Fold change vs veh, TTC7A / RFU, TMEM135 / Fold change vs veh, TMEM135 / RFU, DEPTOR / Fold change vs veh, DEPTOR / RFU, CPM / Fold change vs veh, CPM / RFU, DNAJB6 / Fold change vs veh, DNAJB6 / RFU, CACNA2D3 / Fold change vs veh, CACNA2D3 / RFU, DTX4 / Fold change vs veh, DTX4 / RFU, TFCP2 / Fold change vs veh, TFCP2 / RFU, GMCL1 /// GMCL1P1 / Fold change vs veh, GMCL1 /// GMCL1P1 / RFU, AEBP2 / Fold change vs veh, AEBP2 / RFU, SNHG1 /// SNORD22 /// SNORD25 /// SNORD26 /// SNORD27 /// SNORD28 /// SNORD29 /// SNORD31 / Fold change vs veh, SNHG1 /// SNORD22 /// SNORD25 /// SNORD26 /// SNORD27 /// SNORD28 /// SNORD29 /// SNORD31 / Fold change (Aza/veh), C12orf56 (ProbeSet 11735607_a_at) / Fold change (ACY-1035/veh), C12orf56 (ProbeSet 11735607_a_at) / Fold change (Aza/veh), FGFR1OP (ProbeSet 11751329_s_at) / Fold change (ACY-1035/veh), FGFR1OP (ProbeSet 11751329_s_at) / Fold change (Aza/veh), VPS36 (ProbeSet 11739960_a_at) / Fold change (ACY-1035/veh), VPS36 (ProbeSet 11739960_a_at) / RFU SYPL1 (11715823_x_at) / Fold change /veh SYPL1 (11715823_x_at) / RFU IGFBP7 (11715501_s_at) / Fold change /veh IGFBP7 (11715501_s_at) / RFU REEP3 (11722064_at) / Fold change /veh REEP3 (11722064_at) / RFU IGLL1 (11728026_x_at) / Fold change /veh IGLL1 (11728026_x_at): dose or concentration left out as unconfirmed
Conditions: ProbeSet 11728314_at; LIST B

Nc1ccc(-c2cccs2)cc1NC(=O)c1ccc2c(c1)cc(C1CC1)n2CCN1CCOCC1 [ACY-1035]
Fold change vs veh, ZNF148: 0.92
